Values quoted from earlier work in the PKSmart pharmacokinetics tables (Seal et al. 2025).

Assays:
[1] = Lombardo et al. 2013, J Clin Pharmacol 53:178, doi 10.1177/0091270012440282; conditions: for Vd / clearance: in vivo, iv; for fraction unbound: plasma
[2] = Lombardo, Berellini, Obach 2018, Drug Metab Dispos 46:1466, doi 10.1124/dmd.118.082966; conditions: human; for MRT / Vd / clearance / half-life: in vivo, iv; for fraction unbound: plasma

Compound	Vd ([1]; rat) [L/kg]	clearance ([1]; rat) [mL/min/kg]	MRT [2] [h]	Vd [2] [L/kg]	clearance [2] [mL/min/kg]	half-life [2] [h]	Vd ([1]; dog) [L/kg]	fraction unbound ([1]; dog)	Vd ([1]; monkey) [L/kg]	fraction unbound ([1]; monkey)	fraction unbound ([1]; rat)	clearance ([1]; dog) [mL/min/kg]	clearance ([1]; monkey) [mL/min/kg]	fraction unbound [2]
C[C@@H](O)C1C(=O)N2C(C(=O)O)=C(S[C@@H]3CNC(C(=O)Nc4cccc(C(=O)O)c4)C3)[C@H](C)[C@H]12 (stereo partly specified)	0.34	10	4.4	0.12	0.45	3.8			0.17				0.47	0.1
Cc1cn([C@H]2C[C@H](N=[N+]=[N-])[C@@H](CO)O2)c(=O)[nH]c1=O			1.2	1.8		1.3	1	0.827				14		0.8
Nc1ccn([C@@H]2O[C@H](CO)[C@@H](O)[C@@H]2O)c(=O)n1			0.28	0.67	41.7	0.17	0.86					11.3		
COc1cccc2c1C(=O)c1c(O)c3c(c(O)c1C2=O)C[C@@](O)(C(=O)CO)C[C@@H]3O[C@H]1C[C@H](N)[C@H](I)[C@H](C)O1	14	36.6	6.4	53.6	140	10.3	2.6		14			6.5	43.3	
CC(C)(C)NC(=O)C1C[C@@H]2CCCC[C@@H]2CN1C[C@@H](O)[C@H](Cc1ccccc1)NC(=O)C(CC(N)=O)NC(=O)c1ccc2ccccc2n1 (stereo partly specified)	3		4.6	3.6		13					0.007			
Nc1nc(C(=NO)C(=O)NC2C(=O)N3C(C(=O)O)=C(C=C4CCN(CC(F)(F)F)C4=O)CS[C@H]23)cs1 (stereo partly specified)	0.15	0.95	4.8	0.11	0.38	3.8	0.18	0.16	0.12	0.05	0.025	2.7	0.77	0.043

Second part, the compound after the results:

Vd ([1]; rat) [L/kg]	clearance ([1]; rat) [mL/min/kg]	MRT [2] [h]	Vd [2] [L/kg]	clearance [2] [mL/min/kg]	half-life [2] [h]	Vd ([1]; dog) [L/kg]	fraction unbound ([1]; dog)	Vd ([1]; monkey) [L/kg]	fraction unbound ([1]; monkey)	fraction unbound ([1]; rat)	clearance ([1]; dog) [mL/min/kg]	clearance ([1]; monkey) [mL/min/kg]	fraction unbound [2]	Compound
1.1	21.7	1.1	0.21	3.3	0.85									CC1=C(C(=O)O)N2C(=O)C(NC(=O)C(N)C3=CCC=CC3)[C@H]2SC1 (stereo partly specified)
1.9		1.5	1		4.1	2.39	0.062	1.23	0.06	0.084				COC(=O)C1=C(C)NC(C)=C(C(=O)OCCN(C)Cc2ccccc2)C1c1cccc([N+](=O)[O-])c1 (stereo unspecified)
		16	0.59	0.6	13	0.89					1.67			CCS(=O)(=O)CCn1c([N+](=O)[O-])cnc1C
		3.8	0.83	3.1	5.8	0.9					5.9	16.2	0.93	C[C@H](Cn1cnc2c(N)ncnc21)OCP(=O)(O)O
		1.1	0.51	7.5	1.2	3.24					26			CCc1nn(CCCN2CCN(c3cccc(Cl)c3)CC2)c(=O)n1CCOc1ccccc1
2.7	55.8	4.2	2.2	8.9	3.4	3.98	0.73	2.61	0.699	0.72	28.5	40	0.6	CN(C)CCc1c[nH]c2ccc(CS(=O)(=O)N3CCCC3)cc12
		1.5	0.16	1.8	1	0.28					4.3		0.55	CC1(C)S[C@@H]2C(NC(=O)C(C(=O)O)c3ccsc3)C(=O)N2C1C(=O)O (stereo partly specified)
1.3	25	1.3	0.37	4.8	1.8	0.56	0.304				5.3			CCC(CC)O[C@@H]1C=C(C(=O)O)C[C@H](N)[C@H]1NC(C)=O
